These results are taken from patent US8129398B2 (priority 2008, dated 2012).

The structures appear in SMILES notation.

The assay concerns the target T1, HIV-integrase (Human immunodeficiency virus type 1 group M subtype B, UniProt P12497).
T1 construct: Recombinant integrase (0.26 ng) was incubated with the beads
Description: HIV-Integrase Inhibition Activity (SPA bead integration assay with P33 labeled target DNA). In kind it is biochemical. Conditions: recombinant integrase, class symbols; read-out: in vitro activity. As for the experimental part:
HIV-Integrase Inhibition Activity. To evaluate in-vitro activity against HIV-integrase, 5 pmole of biotin labeled substrate DNA was bound to 100 μg of Streptavidin coated PVT SPA beads (Amersham Pharmacia Biotech). Recombinant integrase (0.26 ng) was incubated with the beads for 90 min at 37° C. Unbound enzyme was removed by washing the complex followed by addition of inhibitors and 0.1 fmol of P33 labeled target DNA. The reaction was stopped by adding EDTA to a final concentration of 10 mM. Samples were counted in TopCountNXT (Packard) and the CPM was used as a measure of integration. The reaction condition was as described in A. Engelman and R. Craigie, J. Virol. 69, 5908-5911 (1995). The sequences of substrate and target DNA were described in Nucleic Acid Research 22, 1121-1122 (1994). Activity equal to A refers to a compound having IC50=<10 nM while B and C denote compounds having […] and IC50>100 nM respectively.
`CN(C)C(=O)C(=O)NC12CCC(Cn3c1nc(C(=O)NCc1ccc(F)cc1)c(O)c3=O)C2` (single isomer, unassigned) [Example 411, Ethanediamide, N′-[2-[[[(4-fluorophenyl)methyl]amino]carbonyl]-6,7,8,9-tetrahydro-3-hydroxy-4-oxo-7,11-methanopyrimido[1,2-a]azepin-10(4H)-yl]-N,N-dimethyl-]: the IC50 was under 10 nM. Regarding `CN(C)C(=O)C(=O)NC12CCC(CCn3c1nc(C(=O)NCc1ccc(F)cc1)c(O)c3=O)C2` (single isomer, unassigned) [Example 413, Ethanediamide, N′-[2-[[[(4-fluorophenyl)methyl]amino]carbonyl]-7,8,9,10-tetrahydro-3-hydroxy-4-oxo-8,11-methano-4H-pyrimido[1,2-a]azocin-11(6H)-yl]-N,N-dimethyl-], the IC50 is under 10 nM.

Consider `CC(=O)N1CCCC1C(=O)NC12CCC(CC1)Cn1c2nc(C(=O)NCc2ccc(F)cc2)c(O)c1=O` (stereo in doubt) [Example 253, 7,10-Ethanopyrimido[1,2-a]azepine-2-carboxamide, 10-[[[(2R)-1-acetyl-2-pyrrolidinyl]carbonyl]amino]-N-[(4-fluorophenyl)methyl]-4,6,7,8,9,10-hexahydro-3-hydroxy-4-oxo-], for which the IC50 was 10 to 100 nM. Consider `CS(=O)(=O)N1CCCC1C(=O)NC12CCC(CC1)Cn1c2nc(C(=O)NCc2ccc(F)cc2)c(O)c1=O` (stereo in doubt) [Example 254, 7,10-Ethanopyrimido[1,2-a]azepine-2-carboxamide, N-[(4-fluorophenyl)methyl]-4,6,7,8,9,10-hexahydro-3-hydroxy-10-[[[(2R)-1-(methylsulfonyl)-2-pyrrolidinyl]carbonyl]amino]-4-oxo-], for which the IC50 was under 10 nM. To `CC(=O)N1CCC1C(=O)NC12CCC(CC1)Cn1c2nc(C(=O)NCc2ccc(F)c(C)c2)c(O)c1=O` (stereo in doubt) [Example 275, 7,10-Ethanopyrimido[1,2-a]azepine-2-carboxamide, 10-[[[(2S)-1-acetyl-2-azetidinyl]carbonyl]amino]-N-[(4-fluoro-3-methylphenyl)methyl]-4,6,7,8,9,10-hexahydro-3-hydroxy-4-oxo-] belongs under 10 nM; to `O=C(NCc1ccc(F)cc1)c1nc2n(c(=O)c1O)CC1CNCC2C1` (stereo not shown) [Example 7, 7,11-Methano-4H-pyrimido[1,2-a][1,5]diazocine-2-carboxamide, N-[(4-fluorophenyl)methyl]-6,7,8,9,10,11-hexahydro-3-hydroxy-4-oxo-], 10 to 100 nM; to `CN(C(=O)OCc1ccccc1)C1c2nc(C(=O)NCc3ccc(F)cc3)c(O)c(=O)n2CC2CCC1C2` (stereo not shown) [Example 8], under 10 nM.

On to `CNC1c2nc(C(=O)NCc3ccc(F)cc3)c(O)c(=O)n2CC2CCC1C2` (stereo not shown) [Example 9, 7,10-Methano-4H-pyrimido[1,2-a]azocine-2-carboxamide, N-[(4-fluorophenyl)methyl]-6,7,8,9,10,11-hexahydro-3-hydroxy-11-(methylamino)-4-oxo-], for which the IC50 was over 100 nM. As for `NC12CCC(CC1)n1c2nc(C(=O)NCc2ccc(F)cc2)c(O)c1=O` [Example 11, 6,9-Ethano-4H-pyrido[1,2-a]pyrimidine-2-carboxamide, 9-amino-N-[(4-fluorophenyl)methyl]-6,7,8,9-tetrahydro-3-hydroxy-4-oxo-], the figure is 10 to 100 nM. On to `CC(=O)NC12CCC(CC1)n1c2nc(C(=O)NCc2ccc(F)cc2)c(O)c1=O` [Example 12, 6,9-Ethano-4H-pyrido[1,2-a]pyrimidine-2-carboxamide, 9-(acetylamino)-N-[(4-fluorophenyl)methyl]-6,7,8,9-tetrahydro-3-hydroxy-4-oxo-], for which the IC50 is under 10 nM. Consider `CS(=O)(=O)NC12CCC(CC1)n1c2nc(C(=O)NCc2ccc(F)cc2)c(O)c1=O` [Example 13, 6,9-ethano-4H-pyrido[1,2-a]pyrimidine-2-carboxamide, N-[(4-fluorophenyl)methyl]-6,7,8,9-tetrahydro-3-hydroxy-9-[(methylsulfonyl)amino]-4-oxo-], for which the IC50 is under 10 nM. As for `CN(C)CC(=O)NC12CCC(CC1)n1c2nc(C(=O)NCc2ccc(F)cc2)c(O)c1=O` [Example 14, 6,9-Ethano-4H-pyrido[1,2-a]pyrimidine-2-carboxamide, 9-[[(dimethylamino)acetyl]amino]-N-[(4-fluorophenyl)methyl]-6,7,8,9-tetrahydro-3-hydroxy-4-oxo-], the figure is 10 to 100 nM; as for `Cn1nc(C(C)(C)C)cc1C(=O)NC12CCC(CC1)n1c2nc(C(=O)NCc2ccc(F)cc2)c(O)c1=O` [Example 15, 6,9-Ethano-4H-pyrido[1,2-a]pyrimidine-2-carboxamide, 9-[[[3-(1,1-dimethylethyl)-1-methyl-1H-pyrazol-5-yl]carbonyl]amino]-N-[(4-fluorophenyl)methyl]-6,7,8,9-tetrahydro-3-hydroxy-4-oxo-], under 10 nM; as for `CN(C)C(=O)C(=O)NC12CCC(CC1)n1c2nc(C(=O)NCc2ccc(F)cc2)c(O)c1=O` [Example 16, Ethanediamide, N′-[2-[[[(4-fluorophenyl)methyl]amino]carbonyl]-7,8-dihydro-3-hydroxy-4-oxo-6,9-ethano-4H-pyrido[1,2-a]pyrimidin-9(6H)-yl]-N,N-dimethyl-], under 10 nM. `Cc1nnc(C(=O)NC23CCC(CC2)n2c3nc(C(=O)NCc3ccc(F)cc3)c(O)c2=O)o1` [Example 17, 6,9-Ethano-4H-pyrido[1,2-a]pyrimidine-2-carboxamide, N-[(4-fluorophenyl)methyl]-6,7,8,9-tetrahydro-3-hydroxy-9-[[(5-methyl-1,3,4-oxadiazol-2-yl)carbonyl]amino]-4-oxo-]: the IC50 was under 10 nM. To `O=C(NC12CCC(CC1)Cn1c2nc(C(=O)NCc2ccc(F)cc2)c(O)c1=O)OCc1ccccc1` [Example 18, Benzyl (2-((4-fluorobenzyl)carbamoyl)-3-hydroxy-4-oxo-6,7,8,9-tetrahydro-7,10-ethanopyrimido[1,2-a]azepin-10(4H)-yl)carbamate] belongs under 10 nM. To `CC(=O)NC12CCC(CC1)Cn1c2nc(C(=O)NCc2ccc(F)cc2)c(O)c1=O` [Example 20, 10-(Acetylamino)-N-(4-fluorobenzyl)-3-hydroxy-4-oxo-4,6,7,8,9,10-hexahydro-7,10-ethanopyrimido[1,2-a]azepine-2-carboxamide] belongs under 10 nM. For `CS(=O)(=O)NC12CCC(CC1)Cn1c2nc(C(=O)NCc2ccc(F)cc2)c(O)c1=O` [Example 21, N-(4-Fluorobenzyl)-3-hydroxy-10-((methylsulfonyl)amino)-4-oxo-4,6,7,8,9,10-hexahydro-7,10-ethanopyrimido[1,2-a]azepine-2-carboxamide], the IC50 was under 10 nM. To `O=C(NCc1ccc(F)cc1)c1nc2n(c(=O)c1O)CC1CCC2(NC(=O)N2CCOCC2)CC1` [Example 22, N-(4-Fluorobenzyl)-3-hydroxy-10-((4-morpholinylcarbonyl)amino)-4-oxo-4,6,7,8,9,10-hexahydro-7,10-ethanopyrimido[1,2-a]azepine-2-carboxamide] belongs 10 to 100 nM; to `CS(=O)(=O)N1CCN(C(=O)NC23CCC(CC2)Cn2c3nc(C(=O)NCc3ccc(F)cc3)c(O)c2=O)C1=O` [Example 23, N-(4-Fluorobenzyl)-3-hydroxy-10-(((3-(methylsulfonyl)-2-oxo-1-imidazolidinyl)carbonyl)amino)-4-oxo-4,6,7,8,9,10-hexahydro-7,10-ethanopyrimido[1,2-a]azepine-2-carboxamide], under 10 nM.

Regarding `Cc1cc(C(=O)NC23CCC(CC2)Cn2c3nc(C(=O)NCc3ccc(F)cc3)c(O)c2=O)nn1C` [Example 24, 10-(((1,5-Dimethyl-1H-pyrazol-3-yl)carbonyl)amino)-N-(4-fluorobenzyl)-3-hydroxy-4-oxo-4,6,7,8,9,10-hexahydro-7,10-ethanopyrimido[1,2-a]azepine-2-carboxamide], the IC50 was under 10 nM. To `COC(=O)NC12CCC(CC1)Cn1c2nc(C(=O)NCc2ccc(F)cc2)c(O)c1=O` [Example 25, Methyl (2-((4-fluorobenzyl)carbamoyl)-3-hydroxy-4-oxo-6,7,8,9-tetrahydro-7,10-ethanopyrimido[1,2-a]azepin-10(4H)-yl)carbamate] belongs under 10 nM. For `O=C(NC12CCC(CC1)Cn1c2nc(C(=O)NCc2ccc(F)cc2)c(O)c1=O)c1ccccn1` [Example 26, N-(4-Fluorobenzyl)-3-hydroxy-4-oxo-10-((2-pyridinylcarbonyl)amino)-4,6,7,8,9,10-hexahydro-7,10-ethanopyrimido[1,2-a]azepine-2-carboxamide], the IC50 was under 10 nM.

Consider `CN(C)C(=O)NC12CCC(CC1)Cn1c2nc(C(=O)NCc2ccc(F)cc2)c(O)c1=O` [Example 27, 10-((Dimethylcarbamoyl)amino)-N-(4-fluorobenzyl)-3-hydroxy-4-oxo-4,6,7,8,9,10-hexahydro-7,10-ethanopyrimido[1,2-a]azepine-2-carboxamide], for which the IC50 fell in the range of 10 to 100 nM.

Regarding `Cc1cc(C(=O)NC23CCC(CC2)Cn2c3nc(C(=O)NCc3ccc(F)cc3)c(O)c2=O)no1` [Example 28, N-(4-Fluorobenzyl)-3-hydroxy-10-(((5-methyl-3-isoxazolyl)carbonyl)amino)-4-oxo-4,6,7,8,9,10-hexahydro-7,10-ethanopyrimido[1,2-a]azepine-2-carboxamide], the IC50 is under 10 nM.
